Earlier results as cited in patent US20100099775A1, “METHOD FOR AMELIORATING OF POST-ANESTHETIC RECOVERY” (ALPHARX INC., priority 2008, published 2010).

Legend:
patients = conditions: 5 mg/kg daily for 4-9 months; three patients
[1] = test system: Friedreich's Ataxia patients; conditions: oral 5 mg/kg daily for 8 weeks
[2] = test system: cultured cortical neurons; conditions: also when applied 30 min after the NMDA pulse
[3] = test system: patients with cerebrovascular disease; conditions: 90 mg daily; nine patients

Structure (SMILES): COC1=C(OC)C(=O)C(CCCCCCCCCCO)=C(C)C1=O [Idebenone, 2,3-dimethoxy-5-methyl-6-(10-hydroxydecyl)-1,4 benzoquinone]
- left ventricular enlargement (patients): reduction
- Solubility in fixed oils (fixed oils (soy, corn, almond, etc.)): low
- water solubility (water): Low
- marker of oxidative DNA damage [1]: significantly decreased
- protection of cortical neurons against necrotic degeneration [2]: rescued cortical neurons
- EEG and clinical symptoms [3]: improvements
